Nine compounds from patent EP0180850A2, “Antimycotic azolyl-methyl-cyclopropyl-carbinol derivatives” (BAYER AG, priority 1984, dated 1986) can be followed below.

The first assay concerns Dermatophyten, Schimmelpilze, Hefen. Description: Antimycotic in-vitro activity, serial dilution test, overall comparison with prior-art compounds. The format is cell-based. As to conditions: compared in words with known compounds (A), (B) and (C). How it is done: Versuchsbeschreibung: • Die in-vitro-Prüfungen wurden im Reihenverdünnungstest mit Keiminokula von durchschnittlich 5 x 10^3 bis 10^4 Keimen/ml Substrat durchgeführt. Als Nährmedium dienten • a) für Dermatophyten und Schimmelpilze: Sabourand's milieu d'epreuve • b) für Hefen: • Fleischextrakt-Traubenzucker-Bouillon.
Die Bebrütungstemperatur betrug 28 bis 37°C, die Bebrütungsdauer lag bei 24 bis 96 Stunden bei Hefen und 96 Stunden bei Dermatophyten und Schimmelpilzen.
Consider `OC(Cn1cncn1)(c1ccc(Cl)cc1)C1(Sc2ccc(Cl)cc2)CC1` (stereo not shown) [I-11], for which the “antimykotische Wirkung” value is on record as “bessere antimykotische Wirkung”. In the case of `OC(Cn1cncn1)(c1ccc(Cl)cc1)C1(Oc2ccccc2)CC1` (stereo not shown) [I-5], the “antimykotische Wirkung” value is “bessere antimykotische Wirkung”. The same measure, in the same setting: for `OC(Cn1cncn1)(c1ccccc1)C1(Oc2ccc(Cl)cc2)CC1` (stereo not shown) [I-2] the value was “bessere antimykotische Wirkung”; for `CCSC1(C(O)(Cn2cncn2)c2ccc(Cl)cc2)CC1` (stereo not shown) [I-1, 1-(4-Chlorphenyl)-1-[1-(ethylthio)-1-cyclopropyl]-2-(1,2,4-triazol-1-yl)-1-ethanol], “bessere antimykotische Wirkung”; for `CCCCSC1(C(O)(Cn2cncn2)c2ccc(Cl)cc2)CC1` (stereo not shown) [I-6], “bessere antimykotische Wirkung”. Take `CCS(=O)(=O)C1(C(O)(Cn2cncn2)c2ccc(Cl)cc2)CC1` (stereo not shown) [I-4]: the “antimykotische Wirkung” value is “bessere antimykotische Wirkung”. The same measure, in the same setting: next, `CC[S+]([O-])C1(C(O)(Cn2cncn2)c2ccc(Cl)cc2)CC1` (stereo not shown) [I-3, 1-(4-Chlorphenyl)-1-[1-(ethylsulfinyl)-1-cyclopropyl]-2-(1,2,4-triazol-1-yl)-1-ethanol]: “bessere antimykotische Wirkung”; `CCCCS(=O)(=O)C1(C(O)(Cn2cncn2)c2ccc(Cl)cc2)CC1` (stereo not shown) [I-7]: “bessere antimykotische Wirkung”.

The test system of a further assay is Candida-Zellen. Description: Antimycotic in-vivo activity (oral) in mouse candidosis. Set-up: species or system Mäuse vom Typ SPF-CF1. As to conditions: mice infected i.v. with 1-2 x 10^6 Candida cells; oral 10 to 100 mg/kg one hour before and seven hours after infection; survival on day 6 p.i. How it is done:
Versuchsbeschreibung: • Mäuse vom Typ SPF-CF1 wurden intravenös mit-1-2 x 10^6 logarithmisch wachsenden Candida-Zellen, die in physiologischer Kochsalzlösung suspendiert werden, infiziert. Eine Stunde vor und sieben Stunden nach der Infektion werden die Tiere mit jeweils 10 bis 100 mg/kg Körpergewicht der Präparate oral behandelt.
Unbehandelte Tiere starben am 3. bis 6. Tag post infektionem. Die Überlebensrate am 6. Tag post infektionem betrug bei unbehandelten Kontrolltieren etwa 5 %.
Regarding `OC(Cn1cncn1)(c1ccc(Cl)cc1)C1(Oc2ccccc2)CC1` (stereo not shown) [I-5], the Wirkung result was “+++++ (= sehr gute Wirkung = 90 % Überlebende am 6. Tag p.i.)”. Same read-out and setting: next, `OC(Cn1cncn1)(c1ccccc1)C1(Oc2ccc(Cl)cc2)CC1` (stereo not shown) [I-2]: “+++++ (= sehr gute Wirkung = 90 % Überlebende am 6. Tag p.i.)”. Regarding `OC(Cn1cncn1)(c1ccc(Cl)cc1)C1(SCc2ccc(Cl)cc2)CC1` (stereo not shown) [I-13], the Wirkung entry is listed as “+++++ (= sehr gute Wirkung = 90 % Überlebende am 6. Tag p.i.)”. `CCSC1(C(O)(Cn2cncn2)c2ccc(Cl)cc2)CC1` (stereo not shown) [I-1, 1-(4-Chlorphenyl)-1-[1-(ethylthio)-1-cyclopropyl]-2-(1,2,4-triazol-1-yl)-1-ethanol]: the Wirkung result is on record as “+++++ (= sehr gute Wirkung = 90 % Überlebende am 6. Tag p.i.)”.

`CCCCSC1(C(O)(Cn2cncn2)c2ccc(Cl)cc2)CC1` (stereo not shown) [I-6]: the Wirkung result is listed as “++++ (= gute Wirkung = 80 % Überlebende am 6. Tag p.i.)”. Still for that read-out and setting: for `CCS(=O)(=O)C1(C(O)(Cn2cncn2)c2ccc(Cl)cc2)CC1` (stereo not shown) [I-4] the value was “+++ (= Wirkung = 60 % Überlebende am 6. Tag p.i.)”. Same read-out and setting: next, `CC[S+]([O-])C1(C(O)(Cn2cncn2)c2ccc(Cl)cc2)CC1` (stereo not shown) [I-3, 1-(4-Chlorphenyl)-1-[1-(ethylsulfinyl)-1-cyclopropyl]-2-(1,2,4-triazol-1-yl)-1-ethanol]: “+++++ (= sehr gute Wirkung = 90 % Überlebende am 6. Tag p.i.)”; `CCCCS(=O)(=O)C1(C(O)(Cn2cncn2)c2ccc(Cl)cc2)CC1` (stereo not shown) [I-7]: “+++++ (= sehr gute Wirkung = 90 % Überlebende am 6. Tag p.i.)”.
